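Grown in 96-well plates, cells were treated for 48 hours with each compound at five concentrations. Insufficient inhibition: endpoint recorded as highest concentration tested. TGI denotes the concentration required for complete inhibition of growth.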
Experiments:
Experiment in all cases: NCI tumour cell line growth inhibition, 48 h
A498 renal = test system: A498 renal
HCC-2998 colon = test system: HCC-2998 colon
K-562 leukemia = test system: K-562 leukemia
DU-145 prostate = test system: DU-145 prostate
M14 melanoma = test system: M14 melanoma
PC-3 prostate = test system: PC-3 prostate
KM12 colon = test system: KM12 colon
SNB-75 CNS = test system: SNB-75 CNS
SK-MEL-28 melanoma = test system: SK-MEL-28 melanoma
NCI-H226 lung = test system: NCI-H226 lung
MOLT-4 leukemia = test system: MOLT-4 leukemia
TK-10 renal = test system: TK-10 renal
NCI/ADR-RES ovarian = test system: NCI/ADR-RES ovarian
T-47D breast = test system: T-47D breast
BT-549 breast = test system: BT-549 breast
UACC-257 melanoma = test system: UACC-257 melanoma

Row | Structure (SMILES) | TGI (A498 renal) [µM] | TGI (HCC-2998 colon) [µM] | TGI (K-562 leukemia) [µM] | TGI (DU-145 prostate) [µM] | TGI (M14 melanoma) [µM] | TGI (PC-3 prostate) [µM] | TGI (KM12 colon) [µM] | TGI (SNB-75 CNS) [µM] | TGI (SK-MEL-28 melanoma) [µM] | TGI (NCI-H226 lung) [µM] | TGI (MOLT-4 leukemia) [µM] | TGI (TK-10 renal) [µM] | TGI (NCI/ADR-RES ovarian) [µM] | TGI (T-47D breast) [µM] | TGI (BT-549 breast) [µM] | TGI (UACC-257 melanoma) [µM]
1 | Cc1ccc(S(=O)(=O)NC(=O)NCc2ccc(S(N)(=O)=O)cc2)cc1 | > 100 | > 100 | > 100 | > 100 | > 100 | > 100 | > 100 | > 100 | > 100 | > 100 | > 100 | > 100 | > 100 | > 100 |  | 
2 | CC(=O)OCC(OC(C)=O)C1C[C@H]2O[C@@H]3[C@H](C[C@H]2O1)O[C@@]1(C[C@@H]3C)C[C@H](C)[C@@H]2O[C@]3(C[C@@H]2O1)C[C@H]1O[C@H]2[C@H](C)[C@H]4OC(=O)C[C@H]5CC[C@@H]6OC7[C@H]8O[C@]9(CC[C@H]%10CC(=O)[C@H](CC[C@H]%11C[C@@H](C)C(=O)C(C[C@@H]4O[C@H]2C[C@H]1O3)O%11)O%10)CC8O[C@@H]7[C@@H](O9)[C@H]6O5 (stereo partly drawn) | > 1 |  | > 1 | > 1 | > 1 | > 1 | > 0.2 | > 1 | > 1 | 0.0731 | > 1 | > 1 | > 0.566 |  | 0.411 | 
3 | Cc1[nH]c(=O)[nH]c(=O)c1/C=C/C(=O)NC(CO)CC(C)C (stereo not drawn) | > 375 | > 375 | > 237 |  |  |  | > 375 | > 375 | > 375 | > 375 | > 211 |  | > 375 |  |  | > 375
4 | CCN(CCCl)c1cc(CN(C)C)cc(NC(=O)c2ccc(C(=O)Nc3cc(CN(C)C)cc(N(CC)CCCl)c3)cc2)c1 |  | 0.311 | 1.6 | 13.7 | 0.926 | 2.4 | 1.36 | 0.506 | 0.536 | 0.251 | 0.248 | 2.57 | > 100 | 15.4 | 0.683 | 1.32
5 | COc1ccccc1C[C@@H]1OC2(C=CC(=O)CC2SC(=O)c2ccccc2)O[C@H]1Cc1ccccc1OC (stereo partly drawn) | 5.67 |  | 27.3 | 18 | 3.26 | 4.71 | 8.4 | 3.28 | 3.22 |  | 19.5 | 5.07 | 4.55 | 5.64 | 2.74 | 3.02
6 | CCOC(=O)C1(CO)CSCCSC1 | > 100 | > 100 | > 100 | > 100 |  | > 100 | > 100 | > 100 | > 100 | > 100 | > 100 | > 100 | > 100 |  |  | > 100
7 | O=C1C2=Cc3ccccc3CCN2c2ccccc21 | 25.9 |  | 20.5 | > 100 | 26.8 | > 62.7 | > 62 | > 100 | > 82.3 | 22 | 48 | > 100 | > 77.9 |  | 33 | > 79.9
8 | CSC1=N/C(=C\c2ccc(C)cc2)C(=O)N1 |  | > 100 |  | > 100 | > 100 | > 100 | > 100 | > 100 | > 100 | > 100 | > 100 | > 100 | > 100 | > 100 | > 100 | > 100
9 | COc1cc2c(cc1OCCCNC(=O)c1cc3ccccc3[nH]1)N=C[C@@H]1CCCN1C2=O | 0.257 | 10.5 | > 100 | > 34.3 | 1.15 | 5.79 | 1.84 | 2.01 | 1.65 | 2.96 | > 100 | > 47.5 | 9.99 |  | 0.559 | > 66.4
10 | COC(=O)/C(C)=N/NC(=S)SC | > 100 | > 100 | > 100 | > 100 | 57 | > 100 | > 100 |  | > 100 | > 100 | > 100 | > 100 | > 100 | 80.6 |  | > 100
11 | O=C(/C=C/c1cccc([N+](=O)[O-])c1)N1CCN(CCOC(c2ccccc2)c2ccccc2)CC1 | > 100 | 55.2 | 50.7 | > 100 | > 100 |  | 87.8 | > 100 | 64.2 |  | 27.4 | 47.7 | > 100 | > 100 | > 100 | 89.2
12 | CN(CCC(=O)N1CC(CCl)c2ccc([N+](=O)[O-])cc21)CCC(=O)N1CC(CCl)c2ccc([N+](=O)[O-])cc21 (stereo not drawn) | 35.3 | 18.2 | 47.7 | > 100 | 21.7 | > 100 | 18.3 | 19 | 28.9 | > 100 | 24.2 | 32 |  | > 100 | > 100 | 21.6
13 | C/C(Cl)=N/OC(=O)Nc1ccc(F)c([N+](=O)[O-])c1 | 39 | > 100 | > 23.9 | 33 | > 48 | 33.2 | 33.8 | 25 | 37.1 | 70.1 | 3.9 | 13.2 | > 100 |  | 29.8 | 53.2
14 | CC12CCCC(C(=O)O)(C1)[C@H](C(C)(C)C(=O)O)CC2 (stereo partly drawn) |  |  | > 100 | > 100 | > 100 | > 100 | > 100 | > 100 | > 100 | > 100 | > 100 | > 100 | > 100 | > 100 | > 100 | > 100
15 | N=C1C(=N)c2ccccc2-c2ccccc21.[Cl-].[Ru+2].c1cnc2c(c1)ccc1cccnc12.c1cnc2c(c1)ccc1cccnc12 |  | > 100 | 78.9 |  | 43.3 |  | > 100 | > 100 | 60.7 |  | 96.9 | > 100 |  |  |  | 46.6
16 | NCc1ccc(-c2ccc(CN)s2)s1 | 23.1 | > 100 | > 100 | > 100 | > 100 | > 100 | > 100 | > 100 | > 100 | > 100 | > 100 | 68.7 | 83.6 | > 100 |  | > 100

Row | Structure (SMILES) | TGI (A498 renal) [µM] | TGI (HCC-2998 colon) [µM] | TGI (K-562 leukemia) [µM] | TGI (DU-145 prostate) [µM] | TGI (M14 melanoma) [µM] | TGI (PC-3 prostate) [µM] | TGI (KM12 colon) [µM] | TGI (SNB-75 CNS) [µM] | TGI (SK-MEL-28 melanoma) [µM] | TGI (NCI-H226 lung) [µM] | TGI (MOLT-4 leukemia) [µM] | TGI (TK-10 renal) [µM] | TGI (NCI/ADR-RES ovarian) [µM] | TGI (T-47D breast) [µM] | TGI (BT-549 breast) [µM] | TGI (UACC-257 melanoma) [µM]
17 | Cc1cccc(N/C(=C(/C(Cl)=C(Cl)Cl)[N+](=O)[O-])n2nnc3ccccc32)c1 | 25 | > 100 | > 100 |  | 47.5 | 30.1 | 29.3 |  | 28.1 | 26.6 | > 100 |  | 49.4 | 56 | 36.5 | 49.3
18 | CCC1CN2CCc3cc(OC)c(OC)cc3C2CC1CC1c2cc(OC)c(OC)cc2CCN1C(=O)C(N)Cc1ccccc1 (stereo not drawn) | 11 | 5.66 | 1.93 |  | 2.19 |  | 10.2 | 10.6 | 10.3 |  | 1.78 | 8.53 |  |  |  | 11.6
19 | CC(=O)OC1C=C(C=O)C(O)(C=O)C2(C)CCCC(C)(C)C12 (stereo not drawn) | 2.31 | 5.75 | 1.73 |  |  |  | 5.14 | 5.82 | 3.42 | 4.62 | 0.629 |  | 5.57 |  |  | 5.68
20 | C1C2CC3CC1CC(c1nn4c(C56CC7CC(CC(C7)C5)C6)nnc4s1)(C2)C3 | > 100 | > 100 | > 100 | > 100 | > 100 | > 100 | > 100 | > 100 | > 100 | > 100 | > 100 | > 100 | > 100 | > 100 |  | 
21 | Cc1cn(C2OC(CO[Si](C)(C)C(C)(C)C)/C(=C\C#N)C2O[Si](C)(C)C(C)(C)C)c(=O)[nH]c1=O (stereo not drawn) | > 100 |  | > 100 | > 100 | > 100 | > 100 | > 100 | > 100 | > 100 | > 100 | > 100 | > 100 | > 100 | > 100 |  | > 100
22 | C[C@]12CCC(O)CC1=CC[C@@H]1[C@@H]2CC[C@]2(C)C(O)[C@H](n3ccnc3)C[C@@H]12 (stereo partly drawn) | > 100 |  | > 100 | > 100 | > 100 | > 100 | > 100 | > 100 | > 100 | > 100 | 80.1 | > 100 | > 100 |  |  | > 100
23 | N=c1c2ccccc2nc2oc3cc([N+](=O)[O-])ccc3n12 |  | > 100 | > 100 |  | > 100 | > 100 | > 100 | 24.9 | > 100 | 30.3 | > 100 | 36.6 | 74 | 20.3 | 91.6 | > 100
24 | CC(C)=CCc1c(O)cc(O)c2c1OC(c1ccc(O)cc1)C(O)C2=O (stereo not drawn) | > 100 | 56.3 | > 100 |  | 57.3 |  | 58.9 | 99 | 50.7 | 56.7 |  | 60.6 |  |  |  | > 100
25 | Cc1ccc(-c2c(C#N)c(-c3ccccc3)n(NS(=O)(=O)c3ccc(C)cc3)c(=O)c2C#N)cc1 | > 100 | > 100 | > 100 |  | > 100 | > 100 | > 100 | > 100 | > 100 | > 100 | 54.5 | > 100 | > 100 |  | > 100 | > 100
26 | CC(C)(C)c1cc(S(=O)(=O)O)c2oc(-c3ccccc3)cc(=O)c2c1 |  | > 100 | > 100 | > 100 |  | > 100 | > 100 | > 100 | > 100 | > 100 | > 100 | > 100 | > 100 | > 100 | > 100 | > 100
27 | CCCCCCCCCCCCCCCCP(=O)(O)OCC(N)C(=O)O (stereo not drawn) | 52.2 | > 100 | > 100 | > 100 | > 100 | 41.5 | 43.7 | 65.1 | > 100 | > 100 | 42.4 |  | > 100 | > 100 |  | > 100
28 | C=CC(C)(C)n1cc(C2=C3OC(=O)C(c4cn(C(C)(C)C=C)c5ccccc45)=C3OC2=O)c2ccccc21 | > 100 | > 100 | > 100 | > 100 | > 100 | > 100 | > 100 | > 100 | > 100 | > 100 | > 100 | > 100 | > 100 |  | > 100 | > 100
29 | C1=C(CC2=C[P+](c3ccccc3)(c3ccccc3)C=C(c3ccccc3)O2)OC(c2ccccc2)=C[P+]1(c1ccccc1)c1ccccc1 | 2.09 |  |  | 1.73 | 1.8 | 1.4 | 1.1 | 0.881 | 2.02 |  | 1.6 | 1.67 | 66.7 |  | 0.309 | 1.33
30 | NCC(Cl)C(O)c1cnc(N)[nH]1 (stereo not drawn) | 1.01 | 5.12 | > 100 |  |  |  | 2.96 | 38.8 | > 76.6 | 17.6 | 2.65 |  | > 100 |  |  | 32
31 | CCOC(=O)/C(C#N)=C/Nc1c(C)n(C)n(-c2ccccc2)c1=O | > 100 | > 100 | > 100 | > 100 | > 100 | > 100 | > 100 |  |  | > 100 | > 100 | > 100 | > 100 |  | > 100 | > 100

— PubChem BioAssay (NCI)
